The values below come from US10517889B2, “Modulators of SMAD7 expression” (Ionis Pharmaceuticals, Inc., priority 2017, dated 2019).

Strand notation (5' to 3'): a small letter for the sugar, then the base; units joined by * are phosphorothioate-linked, units joined directly phosphodiester-linked; [ ] holds rarer units or linkages, { } end groups; capitals alone tell only the bases. e = 2'-O-(2-methoxyethyl) (MOE); [5mC] = 5-methylcytosine; d = 2'-deoxy (DNA)

The test system of the data set is human SMAD7 mRNA. Description: Antisense inhibition of human SMAD7 mRNA expression in Hep3B cells by 5-10-5 MOE gapmers, single concentration, electroporation, RT-PCR (Example 1, Study 1 and 2). The data set is classed as cell-based. The method, boiled down: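 Hep3B cells (20,000/well) electroporated with 5-10-5 MOE gapmer at 5,000 nM or 15,000 nM for approximately 24 h. SMAD7 mRNA quantified by real-time PCR with primer probe set RTS5062 and normalized to RIBOGREEN total RNA. Values are percent inhibition relative to untreated controls.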

Setting [1] is: electroporation, 15,000 nM antisense oligonucleotide (Study 2), 5-10-5 MOE gapmers targeting SEQ ID NO: 1 and 2.
Setting [2] is: electroporation with 15,000 nM antisense oligonucleotide (Study 2), 5-10-5 MOE gapmers targeting SEQ ID NO: 1 and 2.
Where [3] appears, read: Study 2, electroporation with 15,000 nM antisense oligonucleotide, 5-10-5 MOE gapmers targeting SEQ ID NO: 1 and 2.
The mark [4] stands for this setting: electroporation, 5,000 nM, approximately 24 hours, relative to untreated control cells, gapmers targeting SEQ ID NO: 1 and 2.
Setting [5] is: electroporation, 15,000 nM, approximately 24 hours, relative to untreated control cells, gapmers targeting SEQ ID NO: 1 and 2.

Turning to “771443 (eG*e[5mC]*e[5mC]*eT*e[5mC]*dT*dT*dG*dA*d[5mC]*dT*dT*d[5mC]*d[5mC]*dG*eA*eG*eG*eA*eA; antisense) [compound 771443]”, the “% inhibition of SMAD7 mRNA expression” value under setting [1] was 30%. Consider “771633 (antisense eG*eA*e[5mC]*e[5mC]*eA*dA*dA*dT*d[5mC]*d[5mC]*dT*dT*d[5mC]*dT*dT*eG*eG*eA*eG*eG) [compound 771633]”, for which the “% inhibition of SMAD7 mRNA expression” value under setting [2] was found to be 40%. For “771594 (antisense eG*eG*e[5mC]*e[5mC]*eA*d[5mC]*dT*dA*dG*d[5mC]*dA*dG*dG*d[5mC]*dT*e[5mC]*eG*e[5mC]*eT*eG) [compound 771594]”, the “% inhibition of SMAD7 mRNA expression” value under setting [1] turned out to be 37%.

Broadly, the % Inhibition is the change of the read-out against control, counted positive when it falls. Higher therefore signals strong suppression. As to “771370 (antisense e[5mC]*eA*eT*eT*e[5mC]*d[5mC]*dA*dA*dA*dA*dG*dG*d[5mC]*dT*dG*eA*e[5mC]*eT*e[5mC]*eG) [compound 771370]”, the “% Inhibition” value under setting [3] is given as 18%.

For the substance “771374 (antisense eA*eG*e[5mC]*eA*eT*dG*dA*dA*dA*dG*dA*d[5mC]*dA*dA*dA*e[5mC]*e[5mC]*eA*e[5mC]*eA) [compound 771374]”, the “% Inhibition” value under setting [3] is 51%. For the same substance, under setting [4], the “% inhibition of SMAD7 mRNA expression” value amounted to 44%. As for “771818 (antisense eT*eG*eA*eA*eG*dA*d[5mC]*dA*dA*d[5mC]*dT*dG*d[5mC]*dT*dT*eT*eG*eA*eG*eA) [compound 771818]”, the “% inhibition of SMAD7 mRNA expression” value under setting [1] is 38%. Take “771910 (antisense eA*eG*eG*e[5mC]*eA*d[5mC]*dG*dG*d[5mC]*d[5mC]*dG*d[5mC]*d[5mC]*dT*d[5mC]*e[5mC]*eT*eG*e[5mC]*eA) [compound 771910]”: the “% Inhibition” value under setting [3] was determined as 4%.

On to “771558 (antisense eA*eA*eA*eT*eG*dA*dT*dG*dA*d[5mC]*d[5mC]*dG*d[5mC]*d[5mC]*d[5mC]*e[5mC]*e[5mC]*e[5mC]*eT*eT) [compound 771558]”, for which the “% inhibition of SMAD7 mRNA expression” value under setting [3] is 7%.

For the substance “771432 (e[5mC]*eA*eG*eT*eT*dT*d[5mC]*dT*dT*dG*dA*dG*d[5mC]*dA*d[5mC]*e[5mC]*eG*eA*eG*eT; antisense) [compound 771432]”, under setting [3], the “% Inhibition” value was found to be 28%. As to “771626 (antisense eG*e[5mC]*eA*eG*eA*dG*d[5mC]*dT*dT*dA*dA*d[5mC]*dA*d[5mC]*dA*e[5mC]*eA*eG*eG*eA) [compound 771626]”, the “% inhibition of SMAD7 mRNA expression” value under setting [2] came to 35%. In the case of “771693 (antisense eT*e[5mC]*e[5mC]*e[5mC]*eA*dG*dG*dA*dG*dG*dG*dT*dA*dT*dG*e[5mC]*eA*e[5mC]*eA*e[5mC]) [compound 771693]”, under setting [5], the “% inhibition of SMAD7 mRNA expression” value is 45%. Consider “771787 (antisense eA*eA*eG*eA*eA*dG*dA*dA*dG*dG*dA*dG*d[5mC]*dT*d[5mC]*eA*eA*eA*e[5mC]*eT) [compound 771787]”, for which, under setting [3], the “% Inhibition” value amounted to 27%. For the same substance, under setting [4], the “% inhibition of SMAD7 mRNA expression” value was determined as 0%. As to “771824 (antisense eT*eT*e[5mC]*eT*eA*d[5mC]*dT*dA*dG*dA*dA*dA*dA*dA*dA*eA*eT*eT*eA*eG) [compound 771824]”, the “% Inhibition of SMAD7 mRNA” value under setting [2] turned out to be 3%. Under setting [1], the “% inhibition of SMAD7 mRNA expression” value worked out at 0%.

For “771803 (antisense eA*eT*eG*eG*eA*dT*dA*d[5mC]*dT*dG*dA*d[5mC]*dT*d[5mC]*dA*eA*eG*eG*eA*e[5mC]) [compound 771803]”, the “% Inhibition” value under setting [3] was 39%. Moreover, the “% inhibition of SMAD7 mRNA expression” value under setting [4] is recorded as 22%. For the substance “771410 (eG*e[5mC]*eT*e[5mC]*eG*d[5mC]*d[5mC]*dT*d[5mC]*d[5mC]*dT*d[5mC]*d[5mC]*dT*d[5mC]*e[5mC]*eA*e[5mC]*e[5mC]*eT; antisense) [compound 771410]”, under setting [1], the “% inhibition of SMAD7 mRNA expression” value was 37%. For the substance “771686 (antisense eG*eT*eT*eT*eA*dT*d[5mC]*dT*dT*dT*dT*dT*dT*dA*dA*eT*eT*eT*eG*eG) [compound 771686]”, the “% inhibition of SMAD7 mRNA expression” value under setting [3] is 0%.

In the case of “771364 (antisense eT*eA*eA*eT*eG*dG*dT*d[5mC]*dT*dG*d[5mC]*dT*d[5mC]*dA*dG*eG*e[5mC]*eT*eT*e[5mC]) [compound 771364]”, the “% inhibition of SMAD7 mRNA expression” value under setting [1] is 23%.

Turning to “771696 (antisense e[5mC]*eT*e[5mC]*eT*e[5mC]*d[5mC]*d[5mC]*dA*dG*dG*dA*dG*dG*dG*dT*eA*eT*eG*e[5mC]*eA) [compound 771696]”, the “% Inhibition of SMAD7 mRNA” value under setting [2] is 0%. Further, under setting [1], the “% inhibition of SMAD7 mRNA expression” value was found to be 0%.

As to “771553 (antisense eT*eG*eG*eT*eG*d[5mC]*dT*dT*dG*dG*dA*dT*dT*dT*d[5mC]*eT*eG*e[5mC]*eT*eT) [compound 771553]”, under setting [1], the “% inhibition of SMAD7 mRNA expression” value is 38%. As to “771767 (antisense e[5mC]*e[5mC]*eT*eA*eA*dA*dG*dG*dT*dG*dG*dG*dT*d[5mC]*d[5mC]*eA*eT*eT*e[5mC]*e[5mC]) [compound 771767]”, the “% Inhibition” value under setting [3] is reported as 16%. With “771874 (antisense eA*eT*eT*eA*e[5mC]*dT*dT*d[5mC]*dT*dG*dT*d[5mC]*dT*dG*d[5mC]*e[5mC]*eT*e[5mC]*e[5mC]*eG) [compound 771874]”, under setting [1], the “% inhibition of SMAD7 mRNA expression” value came out at 34%. On to “771798 (antisense eG*eA*e[5mC]*eA*e[5mC]*dA*dT*d[5mC]*d[5mC]*dA*dT*dG*dT*d[5mC]*d[5mC]*eA*eA*eG*e[5mC]*eA) [compound 771798]”, for which the “% Inhibition” value under setting [3] came out at 17%. For the substance “771368 (antisense e[5mC]*eG*eG*e[5mC]*e[5mC]*dT*dT*dG*dA*dT*dG*d[5mC]*dT*dG*dA*eT*eT*eA*eT*eT) [compound 771368]”, under setting [5], the “% inhibition of SMAD7 mRNA expression” value amounted to 27%. On the same count and under the same terms, the value for “771557 (antisense eA*eT*eG*eA*e[5mC]*d[5mC]*dG*d[5mC]*d[5mC]*d[5mC]*d[5mC]*d[5mC]*d[5mC]*dT*dT*e[5mC]*eA*eT*eA*e[5mC]) [compound 771557]” was 19%. Regarding “771736 (antisense eT*eG*e[5mC]*e[5mC]*eA*dG*dA*dT*d[5mC]*dT*d[5mC]*dA*dG*dG*dT*e[5mC]*eA*eA*eG*eA) [compound 771736]”, the “% Inhibition of SMAD7 mRNA” value under setting [2] was determined as 34%. The “% inhibition of SMAD7 mRNA expression” value under setting [1] amounted to 0%.

Turning to “771590 (antisense eG*e[5mC]*e[5mC]*eT*eG*dT*dG*dG*dA*d[5mC]*dA*dG*dG*d[5mC]*d[5mC]*e[5mC]*eG*eT*eG*eT) [compound 771590]”, the “% inhibition of SMAD7 mRNA expression” value under setting [3] amounted to 14%.

For “771490 (antisense e[5mC]*eT*eT*e[5mC]*eA*d[5mC]*dA*dA*dA*dG*d[5mC]*dT*dG*dA*dT*e[5mC]*eT*eG*e[5mC]*eA) [compound 771490]”, the “% inhibition of SMAD7 mRNA expression” value under setting [1] came out at 44%.

Turning to “771771 (antisense e[5mC]*eA*eG*e[5mC]*eT*d[5mC]*d[5mC]*dT*dA*d[5mC]*dT*dG*dT*dT*dG*eG*e[5mC]*eA*eG*eT) [compound 771771]”, the “% Inhibition” value under setting [3] worked out at 22%. The “% inhibition of SMAD7 mRNA expression” value under setting [4] was found to be 63%. With “771673 (antisense eA*eG*eG*eT*eT*dT*dT*dT*dT*dT*dT*d[5mC]*dA*dG*dG*eA*eG*eT*e[5mC]*e[5mC]) [compound 771673]”, under setting [2], the “% inhibition of SMAD7 mRNA expression” value is on record as 44%. Turning to “771781 (antisense eA*eA*eA*eA*eA*dA*dA*dG*d[5mC]*d[5mC]*d[5mC]*dA*d[5mC]*d[5mC]*d[5mC]*eA*eT*e[5mC]*eG*eG) [compound 771781]”, the “% inhibition of SMAD7 mRNA expression” value under setting [5] turned out to be 10%. With “771519 (antisense eA*eA*eA*eG*e[5mC]*dA*dA*dG*d[5mC]*dA*d[5mC]*dT*d[5mC]*dA*dG*eG*eA*eG*eG*eA) [compound 771519]”, the “% inhibition of SMAD7 mRNA expression” value under setting [3] worked out at 25%. In the case of “771858 (antisense e[5mC]*eT*eG*e[5mC]*e[5mC]*dA*dA*d[5mC]*dG*dG*d[5mC]*dA*d[5mC]*dA*dG*eT*e[5mC]*eA*eT*eA) [compound 771858]”, the “% inhibition of SMAD7 mRNA expression” value under setting [1] came to 31%. In the case of “771493 (antisense e[5mC]*eG*eG*eG*e[5mC]*dA*dG*d[5mC]*dT*dG*d[5mC]*dT*dG*dA*dT*eG*eA*eA*e[5mC]*eT) [compound 771493]”, the “% inhibition of SMAD7 mRNA expression” value under setting [3] was determined as 17%. On to “771783 (antisense e[5mC]*e[5mC]*e[5mC]*eT*eT*d[5mC]*dA*dG*dA*dG*dA*dG*dT*d[5mC]*dA*e[5mC]*eT*eG*e[5mC]*eT) [compound 771783]”, for which the “% Inhibition” value under setting [3] is recorded as 49%. The same measure, in the same setting: the figure for “771878 (antisense e[5mC]*eA*eG*eT*eT*dT*d[5mC]*dT*dA*dG*dA*dG*dG*dG*dT*eA*eG*eG*eA*eA) [compound 771878]” is 22%. In the case of “771544 (antisense eA*eA*eA*eA*e[5mC]*d[5mC]*d[5mC]*d[5mC]*d[5mC]*dA*dA*d[5mC]*dA*dA*dT*eT*e[5mC]*eT*eT*eT) [compound 771544]”, under setting [2], the “% Inhibition of SMAD7 mRNA” value was determined as 16%. The “% inhibition of SMAD7 mRNA expression” value under setting [1] is listed as 0%.

Regarding “771406 (antisense eG*eA*eG*e[5mC]*eG*dA*dA*d[5mC]*dA*dT*dG*dA*d[5mC]*d[5mC]*dT*e[5mC]*e[5mC]*eG*e[5mC]*eA) [compound 771406]”, the “% inhibition of SMAD7 mRNA expression” value under setting [5] is 55%. “771529 (antisense e[5mC]*eG*eA*e[5mC]*e[5mC]*dA*dA*dA*dG*dA*dG*dT*dT*dT*dG*e[5mC]*eA*eT*eG*eA) [compound 771529]”: under setting [1], the “% inhibition of SMAD7 mRNA expression” value was determined as 0%. Still for that read-out and setting: the value for “771538 (antisense eT*eT*eT*e[5mC]*eT*d[5mC]*dA*dA*dA*dG*dA*dG*d[5mC]*dG*dA*eA*eA*e[5mC]*eA*eA) [compound 771538]” was 24%. As to “771391 (antisense eT*e[5mC]*e[5mC]*eG*eG*d[5mC]*dT*dG*d[5mC]*d[5mC]*d[5mC]*d[5mC]*dA*d[5mC]*d[5mC]*e[5mC]*e[5mC]*eG*e[5mC]*eG) [compound 771391]”, the “% Inhibition” value under setting [3] turned out to be 16%.
